#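 Five concentrations, 48 hours, 96-well plates. Abbreviation: GI50, concentration required for 50% inhibition of growth. The concentration for full growth arrest is given as TGI.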
# What was measured:
# Experiment in all cases: growth of human tumour cells (NCI), 48 h
# ACHN renal = test system: ACHN renal
# DU-145 prostate = test system: DU-145 prostate
# SNB-75 CNS = test system: SNB-75 CNS
# NCI/ADR-RES ovarian = test system: NCI/ADR-RES ovarian
# MDA-MB-435 = test system: MDA-MB-435
# T-47D breast = test system: T-47D breast
# SR leukemia = test system: SR leukemia
# MDA-MB-231 breast = test system: MDA-MB-231 breast
# COLO 205 colon = test system: COLO 205 colon
# UACC-62 melanoma = test system: UACC-62 melanoma
# IGROV1 ovarian = test system: IGROV1 ovarian
# HCC-2998 colon = test system: HCC-2998 colon
Structure (SMILES),GI50 (ACHN renal),TGI (ACHN renal),GI50 (DU-145 prostate),TGI (DU-145 prostate),GI50 (SNB-75 CNS),TGI (SNB-75 CNS),GI50 (NCI/ADR-RES ovarian),TGI (NCI/ADR-RES ovarian),GI50 (MDA-MB-435),TGI (MDA-MB-435),GI50 (T-47D breast),TGI (T-47D breast),GI50 (SR leukemia),TGI (SR leukemia),GI50 (MDA-MB-231 breast),TGI (MDA-MB-231 breast),TGI (COLO 205 colon),TGI (UACC-62 melanoma),TGI (IGROV1 ovarian),TGI (HCC-2998 colon)
CCCCCCCCCCCCCCCCCCOc1ccccc1CC(=O)OCC[N+]1(C)CCCCC1,5.01 µM,25.8 µM,3.02 µM,9.61 µM,1.39 µM,3.72 µM,14.9 µM,46.6 µM,1.7 µM,3.2 µM,2.49 µM,9.37 µM,1.93 µM,4.97 µM,1.83 µM,3.89 µM,–,–,–,–
CN(CCCCCl)P(=O)(OCc1ccc([N+](=O)[O-])o1)OC[C@H]1O[C@@H](n2cc(F)c(=O)[nH]c2=O)C[C@@H]1O (stereo partly drawn),–,> 100 µM,–,40.2 µM,–,6.95 µM,–,36.3 µM,–,39 µM,–,5.41 µM,–,24.2 µM,–,34.2 µM,16.5 µM,6.48 µM,> 63.5 µM,–
CN1CCc2[nH]c3ccccc3c2C1,–,–,–,–,–,> 100 µM,–,> 100 µM,–,–,–,–,–,–,–,–,> 100 µM,> 100 µM,> 100 µM,> 100 µM
CC(CCN)(CCN)[N+](=O)[O-],–,> 100 µM,–,> 100 µM,–,> 100 µM,–,> 100 µM,–,> 100 µM,–,> 100 µM,–,> 100 µM,–,> 100 µM,> 100 µM,> 100 µM,> 100 µM,–
NN(CC(=O)O)CC(=O)O,–,> 100 µM,–,> 100 µM,–,–,–,> 100 µM,–,> 100 µM,–,> 100 µM,–,–,–,> 100 µM,> 100 µM,> 100 µM,> 100 µM,> 100 µM
O=C([O-])C[n+]1ccccc1,–,> 100 µM,–,> 100 µM,–,> 100 µM,–,> 100 µM,–,> 100 µM,–,> 100 µM,–,–,–,> 100 µM,> 100 µM,> 100 µM,> 100 µM,–
C[C@]12C=CC(=O)C=C1CC[C@@H]1[C@@H]2CC[C@]2(C)OC(=O)CC[C@@H]12,–,> 500 µM,–,> 500 µM,–,> 487 µM,–,> 500 µM,–,> 500 µM,–,> 500 µM,–,> 489 µM,–,> 500 µM,> 500 µM,500 µM,> 475 µM,> 409 µM
COc1cc2c(c(O)c1OC)-c1c(cc(OC)c(OC)c1OC)CC(C)C(C)C2 (stereo not drawn),–,> 100 µM,–,> 100 µM,–,> 100 µM,–,–,–,> 100 µM,–,> 100 µM,–,57 µM,–,> 100 µM,> 100 µM,> 100 µM,> 100 µM,> 100 µM
Nc1ncnc2c1ncn2C=C=CCO,–,–,–,> 100 µM,–,> 100 µM,–,> 100 µM,–,> 100 µM,–,> 100 µM,–,> 100 µM,–,> 100 µM,> 100 µM,–,–,> 100 µM
COCCOC(=O)c1c(C)n([O-])c2cc(Cl)c(Cl)cc2[n+]1=O,–,29.3 µM,–,25.8 µM,–,–,–,27.4 µM,–,66.2 µM,–,61.2 µM,–,18.9 µM,–,53.8 µM,25 µM,36.4 µM,23.5 µM,–
C=C1c2ccccc2C(=O)c2c1c1c(C(=O)OC)c(O)ccc1n2Cc1ccccc1,–,1.74 µM,–,0.745 µM,–,0.899 µM,–,0.723 µM,–,0.885 µM,–,–,–,–,–,1.54 µM,3.72 µM,1.12 µM,0.799 µM,–
O=C(Nc1ccc(Cl)cc1)c1cc2cc(N=Nc3ccccc3Cl)ccc2oc1=O,–,> 100 µM,–,–,–,72.5 µM,–,–,–,–,–,–,–,34.9 µM,–,–,> 100 µM,26.6 µM,48.1 µM,41.2 µM
Nc1ncnc2nc[nH]c12,–,–,–,–,–,> 155 µM,–,99.5 µM,–,–,–,–,–,–,–,–,> 221 µM,> 250 µM,> 250 µM,> 191 µM

# From PubChem BioAssay (NCI)
